# Measurements: article PMC6982223, “Design, Synthesis and Molecular Modeling Study of Conjugates of ADP and Morpholino Nucleosides as A Novel Class of Inhibitors of PARP-1, PARP-2 and PARP-3” (International Journal of Molecular Sciences, 2019)
# Tests used:
# [1] = molecular target: T1, Human recombinant poly(ADP-ribose)-polymerase 1 (Homo sapiens, UniProt P09874); assay: autopoly(ADP-ribosyl)ation of PARP-1, [32P]NAD+ incorporation; format: biochemical; conditions: for IC50: autopoly(ADP-ribosyl)ation, 0.3 mM NAD+; for remaining activity at 1000 µM / Residual PARP-1 activity: in the presence of 1 mM compound; for remaining activity at 1000 µM: read-out: Residual PARP-1 activity (converted)
# T1 construct: made in house
# From the text: (§1) The oligonucleotides were purchased from Biosset (Novosibirsk, Russia). The reagents, solvents and the basic components of buffers were purchased from Sigma (St. Louis, MO, USA), Acros organics (Waltham, MA, USA) or Promega (Madison, WI, USA). γ–[^32P]-ATP and α–[^32P]-ATP (with specific activities of 5000 and 3000 Ci/mmol, respectively) were from the Laboratory of Biotechnology (Institute of Chemical Biology and Fundamental Medicine, Novosibirsk, Russia). T4 polynucleotide kinase was from Biosan (Novosibirsk, Russia). SUMO fusion expression vector pETHSUL (GenBank: EF205333.1) and pSUPER vector coding for the catalytic domain of the S. cerevisiae SUMO hydrolase dtUD1 were kindly provided by Dr. P. Loll (Drexel University, Philadelphia, USA). His6 and Strep-II double-tagged dtUD1 hydrolase was expressed and purified as described in ref. [81]. Human recombinant poly(ADP-ribose)-polymerase 1 (EC 2.4.2.30) was prepared as described previously. Murine recombinant poly(ADP-ribose)-polymerase 2 (EC 2.4.2.30) was purified as described previously. Plasmid encoding human PARP-3 was kindly provided by Dr. A. Ishchenko (Gustave Roussy, Université Paris-Saclay, France). Poly(ADP-ribose)-polymerase 3 (EC 2.4.2.30) was purified according to [6].
# (§2) The reaction of autopoly(ADP-ribosyl)ation was carried out as follows: for PARP-1 50 mM tris-HCl, pH 8.0, 20 mM MgCl2, 150 mM NaCl, and 7 mM β-mercaptoethanol, activated DNA 2 OE/mL, 0.3 mM [^32P] NAD+ at 37 °C. The reaction was initiated by adding PARP-1 to 200 nM and the reaction mixtures were incubated for 1.5 min. For PARP-2: 50 mM tris-HCl, pH 8.0, 3 mM spermin, 150 mM NaCl, and 7 mM β-mercaptoethanol, activated DNA 2 OE/mL, 0.6 mM [^32P] NAD+ at 37 °C. The reaction was initiated by adding PARP-2 to 800 nM and the reaction mixtures were incubated for 5 min. The reaction was stopped by placing 10 μL aliquots onto Whatman 1 paper filters soaked with 5 % TCA. The filters were washed with 5% TCA for four times and dried in air after the removal of TCA with 90% ethanol. The incorporation of radioactivity into the product was calculated with a Tri-Carb 2800 scintillation counter (Perkin Elmer, Waltham, MA, USA) according to the Cherenkov method or using Typhoon FLA 9500 scanner (GE Healthcare, Chicago, IL, USA). To determine the IC50 value of inhibitors (concentration of the compound required reducing the enzyme activity by 50%), we studied the activity of the enzyme at different concentrations of inhibitors. Measurements were done in at least two independent experiments. IC50 values were calculated using the Origin Pro 8.0 software by nonlinear regression analysis.
# [2] = molecular target: T2, Murine recombinant poly(ADP-ribose)-polymerase 2 (Mus musculus, UniProt O88554); assay: autopoly(ADP-ribosyl)ation of PARP-2, [32P]NAD+ incorporation; format: biochemical; conditions: for IC50: autopoly(ADP-ribosyl)ation, 0.6 mM NAD+; for remaining activity at 1000 µM / Residual PARP-2 activity: in the presence of 1 mM compound; for remaining activity at 1000 µM: read-out: Residual PARP-2 activity (converted)
# T2 construct: made in house
# From the text: as §1, §2
# T2 sequence (O88554 whole entry): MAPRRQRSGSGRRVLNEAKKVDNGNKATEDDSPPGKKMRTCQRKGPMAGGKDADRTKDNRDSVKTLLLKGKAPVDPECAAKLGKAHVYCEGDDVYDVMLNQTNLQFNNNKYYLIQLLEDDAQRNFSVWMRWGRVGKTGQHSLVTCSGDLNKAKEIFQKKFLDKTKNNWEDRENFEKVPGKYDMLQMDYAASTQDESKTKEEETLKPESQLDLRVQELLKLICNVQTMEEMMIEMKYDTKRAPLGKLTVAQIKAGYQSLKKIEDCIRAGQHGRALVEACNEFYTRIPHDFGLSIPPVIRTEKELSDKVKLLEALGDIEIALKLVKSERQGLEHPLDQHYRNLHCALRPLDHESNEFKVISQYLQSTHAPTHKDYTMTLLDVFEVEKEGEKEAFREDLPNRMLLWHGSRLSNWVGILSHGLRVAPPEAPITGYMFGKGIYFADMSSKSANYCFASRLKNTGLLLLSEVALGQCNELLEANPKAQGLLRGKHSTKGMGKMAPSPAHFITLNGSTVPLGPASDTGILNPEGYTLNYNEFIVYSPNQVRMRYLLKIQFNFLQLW
# T1 sequence (P09874 whole entry): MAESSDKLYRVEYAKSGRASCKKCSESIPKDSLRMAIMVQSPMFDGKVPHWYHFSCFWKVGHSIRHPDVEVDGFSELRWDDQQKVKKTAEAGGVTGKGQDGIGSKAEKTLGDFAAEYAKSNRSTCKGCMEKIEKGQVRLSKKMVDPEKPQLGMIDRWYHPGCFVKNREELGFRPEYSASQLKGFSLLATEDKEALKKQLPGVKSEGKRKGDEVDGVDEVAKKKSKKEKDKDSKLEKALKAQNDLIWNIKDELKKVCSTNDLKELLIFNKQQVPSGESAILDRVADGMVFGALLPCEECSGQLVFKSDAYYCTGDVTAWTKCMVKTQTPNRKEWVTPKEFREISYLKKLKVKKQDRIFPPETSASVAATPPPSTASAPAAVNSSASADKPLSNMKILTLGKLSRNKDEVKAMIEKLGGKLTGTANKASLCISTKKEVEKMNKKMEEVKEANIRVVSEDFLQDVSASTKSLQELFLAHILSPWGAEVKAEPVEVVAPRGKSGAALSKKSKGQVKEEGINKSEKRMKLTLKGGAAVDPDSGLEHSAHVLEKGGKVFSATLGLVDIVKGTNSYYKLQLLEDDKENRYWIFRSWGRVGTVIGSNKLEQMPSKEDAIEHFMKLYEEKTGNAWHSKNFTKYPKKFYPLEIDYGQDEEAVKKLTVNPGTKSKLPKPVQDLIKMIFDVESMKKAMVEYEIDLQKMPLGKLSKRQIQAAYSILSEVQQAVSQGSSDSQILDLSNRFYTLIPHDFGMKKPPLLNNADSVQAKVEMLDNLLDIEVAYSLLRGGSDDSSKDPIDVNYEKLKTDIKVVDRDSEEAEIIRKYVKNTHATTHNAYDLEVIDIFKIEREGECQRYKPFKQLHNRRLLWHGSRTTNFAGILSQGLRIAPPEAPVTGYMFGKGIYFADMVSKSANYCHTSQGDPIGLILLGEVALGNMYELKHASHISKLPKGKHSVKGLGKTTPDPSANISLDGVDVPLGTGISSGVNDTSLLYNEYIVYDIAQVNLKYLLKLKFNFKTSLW
IC50 [2] [µM],remaining activity at 1000 µM [1] [%],remaining activity at 1000 µM [2] [%],SMILES,further results
114 ± 32,–,–,Cc1cn([C@H]2CNC[C@@H](CO)O2)c(=O)[nH]c1=O [Compound 11T],IC50 [1]: 148 ± 53 µM
–,45.5,34,Nc1nc2c(ncn2C2CNCC(COP(=O)(O)OP(=O)(O)OCC3OC(n4cnc5c(N)ncnc54)C(O)C3O)O2)c(=O)[nH]1 (centres unmarked) [Compound 4G],–
224,74,–,Nc1nc2c(ncn2C2CNCC(CNP(=O)(O)OP(=O)(O)OCC3OC(n4cnc5c(N)ncnc54)C(O)C3O)O2)c(=O)[nH]1 (centres unmarked) [Compound 10G],–
–,–,–,"Nc1nc2c(ncn2[C@@H]2O[C@H](CO)[C@@H](O)[C@H]2O)c(=O)[nH]1 [Guo, reference compound]",Residual PARP-1 activity [1]: 60% ± 13%; Residual PARP-2 activity [2]: 46% ± 25%
–,46,47,Nc1ncnc2c1ncn2C1OC(COP(=O)(O)OP(=O)(O)NCC2CNCC(n3cc(Cl)c(=O)[nH]c3=O)O2)C(O)C1O (centres unmarked) [Compound 10ClU],–
421 ± 6,80,–,Nc1ncnc2c1ncn2C1CNCC(COP(=O)(O)OP(=O)(O)OCC2OC(n3cnc4c(N)ncnc43)C(O)C2O)O1 (centres unmarked) [Compound 4A],–
26.5 ± 3.5,–,–,"O=c1[nH]c(=O)n([C@@H]2O[C@H](CO)[C@@H](O)[C@H]2O)cc1I [Compound 5-I-Urd, 5-I-uridine, reference compound]",IC50 [1]: 49 ± 9 µM
–,–,–,"O=c1ccn([C@@H]2O[C@H](CO)[C@@H](O)[C@H]2O)c(=O)[nH]1 [Urd, reference compound]",Residual PARP-2 activity [2]: 96% ± 10%
–,57.5,46.8,Nc1ncnc2c1ncn2C1OC(COP(=O)(O)OP(=O)(O)OCC2CNCC(n3cc(Cl)c(=O)[nH]c3=O)O2)C(O)C1O (centres unmarked) [Compound 4ClU],–
378,–,–,O=c1[nH]c(=O)n([C@H]2CNC[C@@H](CO)O2)cc1Cl [Compound 11ClU],IC50 [1]: 233 ± 25 µM
254,60,–,Nc1ncnc2c1ncn2C1OC(COP(=O)(O)OP(=O)(O)NCC2CNCC(n3cc(Br)c(=O)[nH]c3=O)O2)C(O)C1O (centres unmarked) [Compound 10BrU],–
–,89,33,Nc1ncnc2c1ncn2C1OC(COP(=O)(O)OP(=O)(O)NCC2CNCC(n3ccc(=O)[nH]c3=O)O2)C(O)C1O (centres unmarked) [Compound 10U],–
190 ± 16,–,–,"O=c1[nH]c(=O)n([C@@H]2O[C@H](CO)[C@@H](O)[C@H]2O)cc1Br [Compound 5-Br-Urd, 5-Br-uridine, reference compound]",IC50 [1]: 244 ± 83 µM
136,–,–,Cc1cn(C2CNCC(CNP(=O)(O)OP(=O)(O)OCC3OC(n4cnc5c(N)ncnc54)C(O)C3O)O2)c(=O)[nH]c1=O (centres unmarked) [Compound 10T],IC50 [1]: 220 µM
–,–,–,"Nc1ccn([C@@H]2O[C@H](CO)[C@@H](O)[C@H]2O)c(=O)n1 [Cyd, reference compound]",Residual PARP-1 activity [1]: 81% ± 16%; Residual PARP-2 activity [2]: 85% ± 4%
330 ± 61,–,–,"Cc1cn([C@@H]2O[C@H](CO)[C@@H](O)[C@H]2O)c(=O)[nH]c1=O [rThd, reference compound]",IC50 [1]: 277 ± 107 µM
–,87.5,34.5,Nc1ccn(C2CNCC(CNP(=O)(O)OP(=O)(O)OCC3OC(n4cnc5c(N)ncnc54)C(O)C3O)O2)c(=O)n1 (centres unmarked) [Compound 10C],–
474,40,–,Cc1cn(C2CNCC(COP(=O)(O)OP(=O)(O)OCC3OC(n4cnc5c(N)ncnc54)C(O)C3O)O2)c(=O)[nH]c1=O (centres unmarked) [Compound 4T],–
474,36,–,Nc1ncnc2c1ncn2C1OC(COP(=O)(O)OP(=O)(O)OCC2CNCC(n3cc(Br)c(=O)[nH]c3=O)O2)C(O)C1O (centres unmarked) [Compound 4BrU],–

SMILES,IC50 [2] [µM],remaining activity at 1000 µM [1] [%],remaining activity at 1000 µM [2] [%],further results
Nc1nc2c(ncn2[C@H]2CNC[C@@H](CO)O2)c(=O)[nH]1 [Compound 11G],–,–,64,–
Nc1ccn([C@H]2CNC[C@@H](CO)O2)c(=O)n1 [Compound 11C],–,–,58,–
Nc1ncnc2c1ncn2[C@H]1CNC[C@@H](CO)O1 [Compound 11A],–,82,90,–
